Laboratory results as given in patent publication US9107404B2, “Method for reducing undesirable effects on turfgrass” (Ishihara Sangyo Kaisha, Ltd., priority 2010, dated 2015).

Experiments:
[1] = test system: bentgrass (breed: penncross); assay: Example 7: bentgrass rubbed against mascarenegrass treated with rimsulfuron plus surfactant; conditions: in vivo
Procedure: (§1) Soil was put into a 1/300,000 ha pot, and mascarenegrass was cultivated. Further, soil was put into a 1/1,000,000 ha pot, and bentgrass (breed: penncross) was cultivated. A predetermined amount (rimsulfuron: 35.25 g a.i./ha) of water dispersible granules containing rimsulfuron as an active ingredient (tradename: Hurley DF, manufactured by MARUWA Biochemical Co., Ltd.) was diluted with water containing a predetermined amount of Maku-pika (tradename, the same as in Example 1) and applied by foliar treatment to the mascarenegrass by a small spraygun, so that the amount of the treating liquid corresponds to 2,000 L/ha. Upon expiration of 6 hours after the treatment, the bentgrass not treated with rimsulfuron was rubbed against the mascarenegrass treated therewith (the pot of bentgrass was permitted to slide and reciprocate once).
(§2) On 13th day after the treatment with rimsulfuron, the state of growth of the bentgrass was evaluated in the same manner as in Example 3, and the growth inhibition rate and the degree of discoloring are shown in Table 10. Further, as comparative areas, an area wherein Kusa-rino (tradename, the same as in Example 1) or Surfactant WK (tradename, manufactured by MARUWA Biochemical Co., Ltd.) was used, and an area wherein no surfactant was used, were provided.

[2] = test system: bentgrass (breed: penncross); assay: Example 6: bentgrass rubbed against mascarenegrass treated with asulam plus surfactant; conditions: in vivo
Procedure: Soil was put into a 1/300,000 ha pot, and mascarenegrass were cultivated. Further, soil was put into a 1/1,000,000 ha pot, and bentgrass (breed: penncross) was cultivated. A predetermined amount (asulam: 4625 g a.i./ha) of a treating liquid containing asulam as an active component (tradename: Arsilan liquid preparation, manufactured by Ishihara Sangyo Kaisha, Ltd.) was diluted with water containing a predetermined amount of Maku-pika (tradename, the same as in Example 1), and applied by foliar treatment to the mascarenegrass by a small spraygun so that the amount of the treating liquid corresponds to 2,000 L/ha. Upon expiration of 6 hours after the treatment, the bentgrass not treated with asulam was rubbed against the mascarenegrass treated therewith (the pot of bentgrass was permitted to slide and reciprocate once).
as §2, with “12th” for “13th”, “asulam,” for “rimsulfuron,”, “9.” for “10.”, “1)” for “1) or Surfactant WK (tradename, manufactured by MARUWA Biochemical Co., Ltd.)”

[3] = test system: bentgrass (breed: penncross); assay: Example 1: bentgrass pot rubbed against mascarenegrass treated with flazasulfuron plus surfactant; conditions: in vivo
Procedure: Soil was put into a 1/300,000 ha pot, and mascarenegrass was cultivated. Further, soil was put into a 1/1,000,000 ha pot, and bentgrass (breed: penncross) was cultivated. A predetermined amount (flazasulfuron: 50 g a.i./ha) of water dispersible granules (tradename: SHIBAGEN DF, manufactured by Ishihara Sangyo Kaisha, Ltd.) containing flazasulfuron as an active ingredient, was diluted with water containing a predetermined amount of a silicone surfactant (tradename: Maku-pika, manufactured by Ishihara Sangyo Kaisha, Ltd.) and applied by foliar treatment to the mascarenegrass by a small spraygun so that the amount of the treating liquid corresponds to 2,000 L/ha. Immediately after the treatment or upon expiration of 6 hours after the treatment, the bentgrass not treated with flazasulfuron was rubbed against the mascarenegrass treated with flazasulfuron (the pot of bentgrass was permitted to slide and reciprocate once).
On 14th day after the treatment with flazasulfuron, the state of growth of the bentgrass was visually observed and investigated, and the growth inhibition rate and the degree of necrosis evaluated in accordance with the following standards are shown in Tables 1 and 2. […]

[4] = test system: bentgrass (breed: penncross); assay: Example 2: tester walked on flazasulfuron-treated Japanese lawngrass, then stepped on bentgrass; conditions: in vivo, 21 day
Procedure: Japanese lawngrass was cultivated on ground in 0.6 m^2 (0.4 m×1.5 m). Further, soil was put into a 1/300,000 ha pot, and bentgrass (breed: penncross) was cultivated. A predetermined amount (flazasulfuron: 50 g a.i./ha) of SHIBAGEN DF (tradename, the same as in Example 1) was diluted with water containing a predetermined amount of Maku-pika (tradename, the same as in Example 1) and applied by foliar treatment to the Japanese lawngrass by a small spraygun so that the amount of the treating liquid corresponds to 2,000 L/ha. Immediately after the treatment or upon expiration of 3 hours after the treatment, a tester walked (5 steps) on the Japanese lawngrass treated with flazasulfuron and then stepped on the bentgrass.
(§3) On 21st day after treatment with flazasulfuron, the state of growth of the bentgrass was evaluated in the same manner as in Example 1, and the growth inhibition rate is shown in Tables 3 and 4. Further, as comparative areas, an area wherein Kusa-rino (tradename, the same as in Example 1) was used, and an area wherein no surfactant was used, were provided.

[5] = test system: bentgrass (breed: Minakuru); assay: Example 4: field test, tester walked on flazasulfuron-treated mascarenegrass, then stepped on bentgrass; conditions: in vivo
Procedure: On ground, mascarenegrass in 50 m^2 (2 m×25 m) and bentgrass (breed: Minakuru) in 0.12 m^2 (0.35 m×0.35 m) were respectively cultivated. A predetermined amount (flazasulfuron: 100 g a.i./ha) of a wettable powder containing flazasulfuron as an active ingredient (tradename: SHIBAGEN WP, manufactured by Ishihara Sangyo Kaisha, Ltd.) was diluted with water containing a predetermined amount of a silicone surfactant (tradename: Silwet L-77, manufactured by Witco) and applied by foliar treatment to the mascarenegrass by a knapsack power sprayer so that the amount of the treating liquid corresponds to 2,000 L/ha. After the treating liquid dried, a tester walked (100 m) on the mascarenegrass treated with flazasulfuron, then walked (10 m) on mascarenegrass not treated with flazasulfuron and then stepped on five times on the bentgrass.
as §3, with “11th” for “21st”, “after the” for “after”, “3,” for “1,”, “and the degree of discoloring are” for “is”, “Table 7.” for “Tables 3 and 4.”

[6] = test system: bentgrass (breed: penncross); assay: Example 10: bentgrass rubbed against mascarenegrass treated with flazasulfuron plus surfactant (Breakthru); conditions: in vivo
Procedure: as §1, with “(flazasulfuron: 50” for “(rimsulfuron: 35.25”, “SHIBAGEN DF (tradename, the same” for “water dispersible granules containing rimsulfuron”, “in Example 1)” for “an active ingredient (tradename: Hurley DF, manufactured by MARUWA Biochemical Co., Ltd.)”, “a silicone surfactant (tradename: Breakthru, manufactured by Sankei Chemical Co., Ltd.)” for “Maku-pika (tradename, the same as in Example 1)”, “flazasulfuron,” for “rimsulfuron”
as §3, with “after the” for “after”, “3,” for “1,”, “and the degree of discoloring are” for “is”, “Table 13.” for “Tables 3 and 4.”

[7] = test system: bentgrass (breed: penncross); assay: Example 5: bentgrass rubbed against mascarenegrass treated with trifloxysulfuron sodium salt plus surfactant; assay type: in vivo; conditions: trifloxysulfuron sodium salt 45 g a.i./ha, spreading agent not added, rubbed 6 hours after treatment, 12th day
Procedure: as §1, with “amount (trifloxysulfuron sodium salt: 45” for “amount (rimsulfuron: 35.25”, “containing trifloxysulfuron sodium salt” for “containing rimsulfuron”, “(tradename: Monument water dispersible granules,” for “(tradename: Hurley DF,”, “by Syngenta Japan K.K.)” for “by MARUWA Biochemical Co., Ltd.)”, “with trifloxysulfuron sodium salt,” for “with rimsulfuron”
as §2, with “12th” for “13th”, “trifloxysulfuron sodium salt,” for “rimsulfuron,”, “8.” for “10.”, “1)” for “1) or Surfactant WK (tradename, manufactured by MARUWA Biochemical Co., Ltd.)”

SMILES: CCS(=O)(=O)c1cccnc1S(=O)(=O)NC(=O)Nc1nc(OC)cc(OC)n1 [rimsulfuron]
- Bentgrass Discoloring [1]: 1.0
- Bentgrass Growth inhibition rate ([1]; penncross, bentgrass, 13 day): 35%

SMILES: COC(=O)NS(=O)(=O)c1ccc(N)cc1 [asulam]
- Bentgrass Discoloring [2]: 2.5
- Bentgrass Growth inhibition rate ([2]; penncross, bentgrass, 12 day): 45%

SMILES: COc1cc(OC)nc(NC(=O)NS(=O)(=O)c2ncccc2C(F)(F)F)n1 [flazasulfuron]
- Bentgrass Necrosis [3]: 0.8
- Bentgrass Growth inhibition rate (%) ([3]; penncross, bentgrass, 14 day): 48%
- Bentgrass Growth inhibition rate (%) [4]: 30%
- Bentgrass Growth inhibition rate (%) ([5]; Minakuru, bentgrass, 11 day): 28%
- Bentgrass Discoloring [5]: 1.0
- Bentgrass Discoloring [6]: 0.5
- Bentgrass Growth inhibition rate ([6]; penncross, bentgrass, 21 day): 57%

SMILES: COc1cc(OC)nc(NC(=O)[N-]S(=O)(=O)c2ncccc2OCC(F)(F)F)n1.[Na+] [trifloxysulfuron sodium salt]
- Bentgrass Growth inhibition rate [7]: 60%
- Bentgrass Discoloring ([7]; degree 0-5.0): 1.5
